Experimental data as given in patent publication US8802597B2, “Herbicidal pyrimidines” (E I du Pont de Nemours and Company, priority 2003, dated 2014).
Read-outs that look alike come from different tables or passages of the source.

How the values were obtained:
[1] = test system: velvetleaf (Abutilon theophrasti); experiment: Test A pre/postemergence; assay type: in vivo; conditions: Abutilon theophrasti, 240 h, read-out: Plant response rating, Velvetleaf; for pest or weed control at 125 g/ha: 125 g ai/ha; for pest or weed control at 500 g/ha: 500 g ai/ha
Method in brief: (§1)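 Visual injury scored 0–100 (0 = no effect, 100 = complete control) against untreated controls after about ten days in the greenhouse. Compounds, formulated in non-phytotoxic solvent plus surfactant, were applied preemergence as a directed soil spray and postemergence at the 1- to 2-leaf stage (2–10 cm).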

[2] = test system: morningglory (Ipomoea spp.); experiment: Test A pre/postemergence; assay type: in vivo; conditions: Ipomoea, 240 h, read-out: Plant response rating, Morningglory; for pest or weed control at 125 g/ha: 125 g ai/ha; for pest or weed control at 500 g/ha: 500 g ai/ha
Method in brief: as §1

[3] = test system: giant foxtail (Setaria faberi); experiment: Test A pre/postemergence; assay type: in vivo; conditions: Setaria faberi, 240 h, read-out: Plant response rating, Foxtail, Giant; for pest or weed control at 125 g/ha: 125 g ai/ha; for pest or weed control at 500 g/ha: 500 g ai/ha
Method in brief: as §1

[4] = test system: redroot pigweed (Amaranthus retroflexus); experiment: Test A pre/postemergence; assay type: in vivo; conditions: Amaranthus retroflexus, 240 h, read-out: Plant response rating, Pigweed; for pest or weed control at 125 g/ha: 125 g ai/ha; for pest or weed control at 500 g/ha: 500 g ai/ha
Method in brief: as §1

[5] = test system: crabgrass (Digitaria sanguinalis); experiment: Test A pre/postemergence; assay type: in vivo; conditions: Digitaria sanguinalis, 240 h, read-out: Plant response rating, Crabgrass; for pest or weed control at 125 g/ha: 125 g ai/ha; for pest or weed control at 500 g/ha: 500 g ai/ha
Method in brief: as §1

[6] = test system: barnyardgrass (Echinochloa crus-galli); experiment: Test A pre/postemergence; assay type: in vivo; conditions: Echinochloa crus-galli, 240 h, read-out: Plant response rating, Barnyardgrass; for pest or weed control at 125 g/ha: 125 g ai/ha; for pest or weed control at 500 g/ha: 500 g ai/ha
Method in brief: as §1

[7] = post-emergence, Postemergence, 0 to 100 scale (0 no effect, 100 complete control)
[8] = pre-emergence, Preemergence, 0 to 100 scale where 0 is no effect and 100 is complete control, approximately ten days

Compound | pest or weed control at 125 g/ha [1, 7] | pest or weed control at 500 g/ha [1, 7] | pest or weed control at 125 g/ha [1, 8] | pest or weed control at 500 g/ha [1, 8] | pest or weed control at 125 g/ha [2, 7] | pest or weed control at 500 g/ha [2, 7] | pest or weed control at 125 g/ha [2, 8] | pest or weed control at 500 g/ha [2, 8] | pest or weed control at 125 g/ha [3, 7] | pest or weed control at 500 g/ha [3, 7] | pest or weed control at 125 g/ha [3, 8] | pest or weed control at 500 g/ha [3, 8] | pest or weed control at 125 g/ha [4, 7] | pest or weed control at 500 g/ha [4, 7] | pest or weed control at 125 g/ha [4, 8] | pest or weed control at 500 g/ha [4, 8] | pest or weed control at 125 g/ha [5, 7] | pest or weed control at 500 g/ha [5, 7] | pest or weed control at 125 g/ha [5, 8] | pest or weed control at 500 g/ha [5, 8] | further results
CCOC(=O)c1nc(C(C)C)nc(N)c1Cl [Compound 108] | 35% | 65% | 10% | 50% | 70% | 90% | 0% | 90% | 0% | 10% | 0% | 0% | 50% | 85% | 55% | 75% | 0% | 0% | 0% | 20% | pest or weed control at 125 g/ha [6, 7]: 0%; pest or weed control at 500 g/ha [6, 7]: 5%; pest or weed control at 125 g/ha [6, 8]: 10%; pest or weed control at 500 g/ha [6, 8]: 15%; melting point: 102 to 103 °C
COC(=O)c1nc(C(C)C)nc(N)c1Cl [Compound 110] | 40% | 65% | 25% | 35% | 70% | 85% | 0% | 90% | 0% | 5% | 0% | 0% | 55% | 85% | 40% | 65% | 0% | 10% | 0% | 15% | pest or weed control at 125 g/ha [6, 7]: 0%; pest or weed control at 500 g/ha [6, 7]: 10%; pest or weed control at 125 g/ha [6, 8]: 0%; pest or weed control at 500 g/ha [6, 8]: 15%; melting point: 100 to 104 °C (dec.)
NC(=O)c1nc(C2CC2)nc(N)c1Cl [Compound 85] | 25% | 60% | 0% | 10% | 20% | 75% | 0% | 20% | 0% | 0% | 0% | 0% | 75% | 90% | 50% | 60% | 0% | 0% | 0% | 5% | pest or weed control at 125 g/ha [6, 7]: 0%; pest or weed control at 500 g/ha [6, 7]: 0%; pest or weed control at 125 g/ha [6, 8]: 0%; pest or weed control at 500 g/ha [6, 8]: 0%; melting point: 232 to 236 °C
